# According to patent US9918989B2, “Combination therapies for malaria” (The Regents of the University of California, priority 2013, dated 2018):
# “Also recorded” adds a separate entry of the source.
# Experiments:
# [1] = system: Plasmodium falciparum; assay: P. falciparum growth in vitro, flow cytometry; assay type: cell-based; details: 1 μM or 10 μM (up to 10 μM), 48 h, relative to vehicle control
# [2] = system: anti-parasite genes; assay: Midgut expression of anti-parasite/immune genes, quantitative PCR; assay type: in vivo, Anopheles stephensi; details: BIRB 796 with killed lysate of P. falciparum; 6 h post-feeding
# [3] = system: Anopheles stephensi p38 MAPK; assay: MK2 phosphorylation in LPS-stimulated ASE cells, western blot; assay type: cell-based; details: ASE cells pre-incubated with 10 μM inhibitor, 2 h later 1 μg/ml LPS
# [4] = system: Plasmodium falciparum; assay: P. falciparum development (oocysts) in A. stephensi after inhibitor-supplemented bloodmeal; assay type: in vivo, Anopheles stephensi; details: 10 μM in bloodmeal
# Protocol: Midguts were dissected and oocysts were counted at 10 days following infection. Dots in FIG. 3A and FIG. 3C represent oocyst numbers in one midgut, while percentage positive midguts or percentage of midguts with at least one oocyst are represented as means in FIG. 3B and FIG. 3D. Mean oocysts per midgut (lines, numbers on graph) were analyzed by ANOVA (alpha=0.05) for overall significance and by Student-Neuman-Keuls for pairwise comparisons using Graphpad Prism version 4.0 (San Diego, Calif.). Prevalences of mosquito infection (indicated on graph) were analyzed by chi-square (alpha=0.05).
# [5] = system: A. stephensi; assay: Mosquito lifespan with inhibitor in water or bloodmeal; assay type: in vivo, Anopheles stephensi; details: 1 μM or 10 μM daily in water or once weekly via bloodmeal
# [6] = system: A. freeborni; assay: as above; assay type: in vivo, Anopheles freeborni; details: 1 μM or 10 μM daily in water or once weekly via bloodmeal
SMILES,P. falciparum growth in vitro (parasitemia) [1],midgut immune gene expression levels [2],p-MK2 levels (phosphorylation of MK2) [3],infection prevalence in A. stephensi ([4]; midguts with at least one oocyst at 10 days),P. falciparum oocysts/midgut ([4]; oocysts counted at 10 days),impact on lifespan [5],impact on lifespan [6]
"Cc1ccc(-n2nc(C(C)(C)C)cc2NC(=O)Nc2ccc(OCCN3CCOCC3)c3ccccc23)cc1 [BIRB 796, 1-[5-tert-butyl-2-(4-methylphenyl)pyrazol-3-yl]-3-[4-(2-morpholin-4-ylethoxy)naphthalen-1-yl]urea]",Neither inhibitor significantly altered parasite growth,significantly different from controls,–,–,–,–,–
"C[S+]([O-])c1ccc(-c2nc(-c3ccc(F)cc3)c(-c3ccncc3)[nH]2)cc1 (centres unmarked) [SB203580, 4-[4-(4-fluorophenyl)-2-(4-methylsulfinylphenyl)-1H-imidazol-5-yl]pyridine]",Neither inhibitor significantly altered parasite growth; also recorded: no such effects,–,undetectable,significantly reduced,significantly reduced,–,–
"Oc1c2ccccc2c2c3c(cccc13)N=N2 [SP600125, 1;9-Pyrazoloanthrone]",–,–,–,–,–,no negative impact,no negative impact
